Test results reported in patent US20080021099A1, “5-Cyano-prostacyclin derivatives as agents for the treatment of autoimmune disease” (Bayer Schering Pharma Aktiengesellschaft, priority 2006, published 2008).
Like-named read-outs stand apart in the source and are kept apart here.

Experiments:
Format in all cases: cell-based
[1] = test system: human CD8 cells; assay: Anti-CD3/CD28-stimulated cytotoxic CD8+ lymphocyte cytokine release, multi-cytokine bead immunoassay; settings: 1 μM Nileprost; for inhibition at 1 µM: Homo sapiens, Lymphocyte, Anti-CD3/CD28 stimulation, overnight
From the text: The activation of a human T lymphocyte by an antigen-presenting cell and antigen through the T cell receptor is mimicked in experimental conditions by the addition of antibodies to the CD3 subunit of the T cell receptor and antibodies to the CD28 costimulatory receptor. It is known that anti-CD3 anti-CD28 binding to T lymphocytes stimulates the cells to release various cytokines. Some of these cytokines are IL-2, IFN-γ and GM-CSF. The biochemistry and biological activities of these cytokines have been extensively reviewed in the literature. The binding of Nileprost to the EP receptor inhibits the release of various CD8+ cytokines.
Multi-cytokine immunosorbant assays based on antibodies specific to human cytokines are commercially available. Standards and samples are pipetted into sample tubes. A monoclonal antibody specific for a cytokine is covalently linked to a fluorescent bead set, which captures the cytokine. A complementary biotinylated monoclonal cytokine antibody then completes the immunological sandwich and the reaction is detected with streptavidin-phycoerythrin.
CD14-negative populations were isolated from four donors by Miltenyi CD14 beads. The four populations were allowed to rest at 5×10^6/mL in separate flasks overnight in RPMI 1640, 10% fetal bovine serum. Meanwhile, anti-CD3 antibody (OKT3, functional antibody, eBioscience) were bound to 10 cm plates at 5 μg/mL in sodium carbonate binding buffer at 4° C. The next day, the cells were mixed and 1×10^9 cells were taken for CD8 isolation using the Milenyi CD8 isolation kit (negative selection). The resulting 3.9×10^8 CD8 cells were resuspended in medium at 4×10^6/mL and added to the 10 cm CD3-bound plates. Soluble anti-CD28 (2-5 μg/mL) and 1 μM Nileprost or vehicle alone were added to the CD8 cells. Incubation was continued overnight and cytokines were detected as described above.

[2] = test system: Human monocyte derived dendritic cells; assay: LPS-stimulated monocyte-derived dendritic cell IL-12 release, ELISA; settings: for inhibition at 1 µM: Homo sapiens, Dendritic cell, 18 h, read-out: Inhibition (percent) of IL-12 release; for inhibition at 1 µM / Inhibition (percent) of IL-12 release: 10 ng/mL LPS, approx. 18 hr; for Inhibition (percent) of IL-12 release: 1 µM of PGE2
From the text: Following stimulation through the toll-like receptors TLR, DCs express and release proinflammatory cytokines and chemokines and may induce activation and proliferation of naïve T cells. The binding of Nileprost to the EP receptor inhibits TLR4 ligand (LPS)-stimulated IL-12 release. Therefore, Nileprost skews the CD4 T cell differentiation to a Th-2 lineage.
IL-12 is a 75 kDa glycoprotein heterodimer (p70) composed of two genetically unrelated subunits linked by a disulfide bond. Enzyme-linked immunosorbant assays based on antibodies specific to IL-12 p70 are commercially available. Standards and samples are pipetted into the wells of a microplate. An antibody specific to human IL-12 is added to the wells. A substrate is added to the wells and color develops in proportion to the amount of IL-12 bound. The intensity of the color is measured.
Human monocyte-derived dendritic cells were isolated from human donors using a Ficoll density gradient and residual erythrocytes were removed by selective lysis. CD14 MicroBeads were used for separation of human cells based on the expression of the CD14 antigen. The dendritic cells were cultured at approximately 1.5×10^6 cells per mL in RPMI1640 with fetal bovine serum, 200 ng/mL GM-CSF (Leukine) and 10 ng/mL IL-4. The cells grew for a period of 3 days and then the media was changed. 10 ng/mL LPS was used to activate the cells. 1 μM of Nileprost and 1 µM of PGE2 were added during the LPS stimulation. Cells were incubated for approximately 18 hr at 37° C. IL-12 released during activation was measured by ELISA.

[3] = test system: human T cells; assay: ConA-stimulated T lymphocyte Th-1 cytokine (IFN-γ) release, ELISA; settings: for inhibition at 0.0005 µM / inhibition at 0.00125 µM / inhibition at 0.0025 µM / inhibition at 0.005 µM / inhibition at 0.01 µM / inhibition at 0.02 µM: Homo sapiens, T-cell, 18 h, ConA 2 μg/mL, approx. 18 hr, read-out: Inhibition (percent) of IFN-γ release; for inhibition at 0.0005 µM: Nileprost 0.5 nM; for inhibition at 0.00125 µM: Nileprost 1.25 nM; for inhibition at 0.0025 µM: Nileprost 2.5 nM; for inhibition at 0.005 µM: Nileprost 5 nM; for inhibition at 0.01 µM: Nileprost 10 nM; for inhibition at 0.02 µM: Nileprost 20 nM
From the text: The activation of a human T lymphocyte by an antigen-presenting cell and antigen through the T cell receptor is mimicked in experimental conditions by the lectin Concanavilin A (ConA). It is known that ConA binds to the T cell receptor and stimulates the cell to release various cytokines. The binding of Nileprost to the EP receptor inhibits various cytokines release. One of the Th-1 released cytokines is IFN-γ. The biochemistry and biological activities of IFN-γ have been extensively reviewed in the literature.
Human IFN-γ is a dimer of the expressed 143 amino acid protein. Enzyme-linked immunosorbant assays (ELISA) based on antibodies specific to IFN-γ are commercially available. Standards and samples are pipetted into the wells of a microplate. An antibody specific to human IFN-γ is added to the wells. A substrate is added to the wells and color develops in proportion to the amount of IFN-γ bound. The intensity of the color is measured.
Peripheral blood lymphocytes were isolated from human donors using a Ficoll density gradient and residual erythrocytes were removed by selective lysis. The lymphocytes are cultured at approximately 10^6 cells per mL in RPMI1640 with 10% additional fetal bovine serum. The cell cultures were activated with 2 μg/mL of ConA as described above. Nileprost was added at various dilutions during the ConA activation. Cells were incubated for approximately 18 hr at 37° C. IFN-γ released during activation was measured by ELISA.

## CCCCC(C)[C@H](O)/C=C/[C@@H]1[C@H]2C/C(=C(\C#N)CCCC(=O)O)O[C@H]2C[C@H]1O (some centres unmarked) [Nileprost]
[1]
  Inhibitory activity in cytotoxic CD8+ lymphocyte cytokine release (in words): very high inhibitory activity
[1]; Donor 1, read-out: Inhibition (percent) of GM-CSF release
  inhibition at 1 µM: 77%
[1]; Donor 1, read-out: Inhibition (percent) of IFN-γ release
  inhibition at 1 µM: 79%
[1]; Donor 1, read-out: Inhibition (percent) of IL-2 release
  inhibition at 1 µM: 71%
[1]; Donor 2, read-out: Inhibition (percent) of GM-CSF release
  inhibition at 1 µM: 65%
[1]; Donor 2, read-out: Inhibition (percent) of IFN-γ release
  inhibition at 1 µM: 59%
[1]; Donor 2, read-out: Inhibition (percent) of IL-2 release
  inhibition at 1 µM: 68%
[1]; Donor 3, read-out: Inhibition (percent) of GM-CSF release
  inhibition at 1 µM: 87%
[1]; Donor 3, read-out: Inhibition (percent) of IFN-γ release
  inhibition at 1 µM: 79%
[1]; Donor 3, read-out: Inhibition (percent) of IL-2 release
  inhibition at 1 µM: 88%
[1]; Donor 4, read-out: Inhibition (percent) of GM-CSF release
  inhibition at 1 µM: 61%
[1]; Donor 4, read-out: Inhibition (percent) of IFN-γ release
  inhibition at 1 µM: 80%
[1]; Donor 4, read-out: Inhibition (percent) of IL-2 release
  inhibition at 1 µM: 70%
[2]; 1 μM of Nileprost
  Inhibitory activity in human monocyte-derived dendritic cell (DC) cytokine release (in words): very high inhibitory activity
[2]; Donor 1, 1 μM of Nileprost
  inhibition at 1 µM: 84%
[2]; Donor 2, 1 μM of Nileprost
  inhibition at 1 µM: 51%
[2]; Donor 3, 1 μM of Nileprost
  inhibition at 1 µM: 69%
[2]; Donor 4, 1 μM of Nileprost
  inhibition at 1 µM: 66%
[3]; Donor 1
  inhibition at 0.0005 µM: 17%
  inhibition at 0.00125 µM: 23%
  inhibition at 0.0025 µM: 45%
  inhibition at 0.005 µM: 56%
  inhibition at 0.01 µM: 50%
  inhibition at 0.02 µM: 67%
[3]; Donor 2
  inhibition at 0.0005 µM: 2%
  inhibition at 0.00125 µM: 11%
  inhibition at 0.0025 µM: 17%
  inhibition at 0.005 µM: 35%
  inhibition at 0.01 µM: 43%
  inhibition at 0.02 µM: 41%
[3]; Donor 3
  inhibition at 0.0005 µM: 26%
  inhibition at 0.00125 µM: 36%
  inhibition at 0.0025 µM: 43%
  inhibition at 0.005 µM: 54%
  inhibition at 0.01 µM: 64%
  inhibition at 0.02 µM: 68%
[3]; Donor 4
  inhibition at 0.0005 µM: 21%
  inhibition at 0.00125 µM: 29%
  inhibition at 0.0025 µM: 31%
  inhibition at 0.005 µM: 48%
  inhibition at 0.01 µM: 55%
  inhibition at 0.02 µM: 56%
[3]; dose responsively, 0.5-20 nM
  Inhibitory activity in T lymphocyte Th-1 cytokine release (in words): very high inhibitory activity

## CCCCC[C@H](O)/C=C/[C@H]1[C@H](O)CC(=O)[C@@H]1C/C=C\CCCC(=O)O [PGE2, Prostaglandin E2, reference compound]
[2]; Donor 1
  Inhibition (percent) of IL-12 release: 80%
[2]; Donor 2
  Inhibition (percent) of IL-12 release: 33%
[2]; Donor 3
  Inhibition (percent) of IL-12 release: 83%
[2]; Donor 4
  Inhibition (percent) of IL-12 release: 72%
